Read-outs that look alike come from different tables or passages of the source.
Experiments:
ST486 = assay: OncoPanel cell proliferation assay, ST486; format: cell-based, human
Procedure: (§1) Cells were grown in RPMI 1640, 10% FBS, 2 mM L-alanyl-L-glutamine, 1 mM Na pyruvate, or a special medium. Cells were seeded into 384-well plates and incubated in a humidified atmosphere of 5% CO2 at 37° C. Compounds were added the day following cell seeding. At the same time, a time zero untreated cell plate was generated. After a 3-day incubation period, cells were fixed and stained to allow fluorescence imaging of nuclei. Compounds (1 mM stock solutions) were serially diluted in half-log steps from the highest test concentration ([…]), and assayed over 10 concentrations with a maximum assay concentration of 0.1% DMSO. Automated fluorescence microscopy was carried out using a Molecular Devices ImageXpress Micro XL high-content imager, and images were collected with a 4× objective. 16-bit TIFF images were acquired and analyzed with MetaXpress 5.1.0.41 software.
(§2) Cell proliferation was measured by the fluorescence intensity of an incorporated nuclear dye. The output is referred to as the relative cell count, where the measured nuclear intensity is transformed to percent of control (POC) using the following formula: […]
(§3) Cellular response parameters were calculated using nonlinear regression to a sigmoidal single-site dose response model:
(§4) EC50 is the test compound concentration at the curve inflection point or half the effective response (parameter C of the fitted curve solution). GI50 is the concentration needed to reduce the observed growth by half (midway between the curve maximum and the time zero value). “Cell Count Activity Area” is an estimate of the integrated area above the curve (Barretina, et al. The Cancer Cell Line Encyclopedia enables predictive modelling of anticancer drug sensitivity. Nature 483: 603-607). […] In rare instances, values <0 or >10 may be observed. […] Curve-fitting, calculations, and report generation was performed using a custom data reduction engine and MathIQ based software (AIM).

AGS = assay: OncoPanel cell proliferation assay, AGS; format: cell-based, human
Procedure: as §1, §2, §3, §4

SK-MEL-28 = assay: OncoPanel cell proliferation assay, SK-MEL-28; format: cell-based, human
Procedure: as §1, §2, §3, §4

G-402 = assay: OncoPanel cell proliferation assay, G-402; format: cell-based, human
Procedure: as §1, §2, §3, §4

CAMA-1 = assay: OncoPanel cell proliferation assay, CAMA-1
Procedure: Cells were seeded into 384-well plates and incubated in a humidified atmosphere of 5% CO2 at 37° C. Compounds were added the day following cell seeding. At the same time, a time zero untreated cell plate was generated. After a 3-day incubation period, cells were fixed and stained to allow fluorescence imaging of nuclei. Compounds (1 mM stock solutions) were serially diluted in half-log steps from the highest test concentration (1 micromol), and assayed over 10 concentrations with a maximum assay concentration of 0.1% DMSO. Automated fluorescence microscopy was carried out using a Molecular Devices ImageXpress Micro XL high-content imager, and images were collected with a 4× objective. 16-bit TIFF images were acquired and analyzed with MetaXpress 5.1.0.41 software.
GI50 is the concentration needed to reduce the observed growth by half (midway between the curve maximum and the time zero value). […] In rare instances, values <0 or >10 may be observed. […] Curve-fitting, calculations, and report generation was performed using a custom data reduction engine and MathIQ based software (AIM).

CaOV3 = assay: OncoPanel cell proliferation assay, CaOV3; format: cell-based, human
Procedure: as §1, §2, §3, §4

[1] = Homo sapiens, read-out: Cell Count EC50
[2] = Homo sapiens, read-out: Cell Count GI50
[3] = Homo sapiens, read-out: Cell Count IC50

CO[C@H]1C[C@@H]2CC[C@@H](C)[C@@](O)(O2)C(=O)C(=O)N2CCCC[C@H]2C(=O)O[C@H]([C@H](C)C[C@H]2C[C@H]3C[C@@H]2C[C@@H]3O)CC(=O)[C@H](C)/C=C(\C)[C@@H](O)[C@@H](OC)C(=O)[C@H](C)C[C@H](C)/C=C/C=C/C=C/1C [Formula II, C37-[(1R,2S,4R,5S)-5-hyhroxybicyclo[2.2.1]heptane] rapamycin]
Cell Count Activity Area (ST486): 3.05 | Relative cell count (%) Mean (ST486; 1.00E+00 microM): 55.2% | Relative cell count (%) Mean (ST486; 1.00E-01 microM): 56.2% | Relative cell count (%) Mean (ST486; 1.00E-02 microM): 57.6% | Relative cell count (%) Mean (ST486; 1.00E-03 microM): 72.7% | Relative cell count (%) Mean (ST486; 1.01E-04 microM): 90.5% | Relative cell count (%) Mean (ST486; 3.16E-01 microM): 49.9% | Relative cell count (%) Mean (ST486; 3.17E-02 microM): 55.2% | Relative cell count (%) Mean (ST486; 3.17E-03 microM): 58.2% | Relative cell count (%) Mean (ST486; 3.18E-04 microM): 77.5% | Relative cell count (%) Mean (ST486; 3.18E-05 microM): 92.2% | EC50 (ST486; [1]): 0.581 nM | GI50 (ST486; [2]): 1.17 nM | IC50 (ST486; [3]): > 1000 nM | Cell Count Activity Area (AGS): 5.29 | Relative cell count (%) Mean (AGS; 1.00E+00 microM): 41.7% | Relative cell count (%) Mean (AGS; 1.00E-01 microM): 44.3% | Relative cell count (%) Mean (AGS; 1.00E-02 microM): 41.0% | Relative cell count (%) Mean (AGS; 1.00E-03 microM): 48.7% | Relative cell count (%) Mean (AGS; 1.01E-04 microM): 87.1% | Relative cell count (%) Mean (AGS; 3.16E-01 microM): 40.7% | Relative cell count (%) Mean (AGS; 3.17E-02 microM): 42.8% | Relative cell count (%) Mean (AGS; 3.17E-03 microM): 51.4% | Relative cell count (%) Mean (AGS; 3.18E-04 microM): 63.8% | Relative cell count (%) Mean (AGS; 3.18E-05 microM): 124.5% | EC50 (AGS; [1]): 0.133 nM | GI50 (AGS; [2]): 0.245 nM | IC50 (AGS; [3]): 0.297 nM | Cell Count Activity Area (SK-MEL-28): 2.68 | Relative cell count (%) Mean (SK-MEL-28; 1.00E+00 microM): 60.6% | Relative cell count (%) Mean (SK-MEL-28; 1.00E-01 microM): 69.8% | Relative cell count (%) Mean (SK-MEL-28; 1.00E-02 microM): 84.3% | Relative cell count (%) Mean (SK-MEL-28; 1.00E-03 microM): 91.6% | Relative cell count (%) Mean (SK-MEL-28; 1.01E-04 microM): 110.7% | Relative cell count (%) Mean (SK-MEL-28; 3.16E-01 microM): 66.4% | Relative cell count (%) Mean (SK-MEL-28; 3.17E-02 microM): 71.0% | Relative cell count (%) Mean (SK-MEL-28; 3.17E-03 microM): 85.4% | Relative cell count (%) Mean (SK-MEL-28; 3.18E-04 microM): 94.6% | Relative cell count (%) Mean (SK-MEL-28; 3.18E-05 microM): 102.8% | EC50 (SK-MEL-28; Homo sapiens, Skin, Melanoma, summary Table 5, read-out: EC50): 4.8 nM | EC50 (SK-MEL-28; [1]): 4.71 nM | GI50 (SK-MEL-28; [2]): 38.2 nM | IC50 (SK-MEL-28; [3]): > 1000 nM | Cell Count Activity Area (G-402): 4.75 | Relative cell count (%) Mean (G-402; 1.00E+00 microM): 25.8% | Relative cell count (%) Mean (G-402; 1.00E-01 microM): 28.4% | Relative cell count (%) Mean (G-402; 1.00E-02 microM): 40.5% | Relative cell count (%) Mean (G-402; 1.00E-03 microM): 63.7% | Relative cell count (%) Mean (G-402; 1.01E-04 microM): 100.0% | Relative cell count (%) Mean (G-402; 3.16E-01 microM): 27.5% | Relative cell count (%) Mean (G-402; 3.17E-02 microM): 36.6% | Relative cell count (%) Mean (G-402; 3.17E-03 microM): 52.6% | Relative cell count (%) Mean (G-402; 3.18E-04 microM): 86.8% | Relative cell count (%) Mean (G-402; 3.18E-05 microM): 97.8% | EC50 (G-402; [1]): 1.13 nM | GI50 (G-402; [2]): 1.51 nM | IC50 (G-402; [3]): 2.87 nM | Cell Count Activity Area (CAMA-1; CAMA-1): 4.22 | Relative cell count (%) Mean (CAMA-1; CAMA-1, 1.00E+00 microM): 42.0% | Relative cell count (%) Mean (CAMA-1; CAMA-1, 1.00E-01 microM): 45.4% | Relative cell count (%) Mean (CAMA-1; CAMA-1, 1.00E-02 microM): 54.6% | Relative cell count (%) Mean (CAMA-1; CAMA-1, 1.00E-03 microM): 64.5% | Relative cell count (%) Mean (CAMA-1; CAMA-1, 1.01E-04 microM): 98.0% | Relative cell count (%) Mean (CAMA-1; CAMA-1, 3.16E-01 microM): 43.0% | Relative cell count (%) Mean (CAMA-1; CAMA-1, 3.17E-02 microM): 45.1% | Relative cell count (%) Mean (CAMA-1; CAMA-1, 3.17E-03 microM): 55.9% | Relative cell count (%) Mean (CAMA-1; CAMA-1, 3.18E-04 microM): 79.7% | Relative cell count (%) Mean (CAMA-1; CAMA-1, 3.18E-05 microM): 96.5% | EC50 (CAMA-1; Homo sapiens, CAMA-1, read-out: Cell Count EC50): 0.491 nM | GI50 (CAMA-1; Homo sapiens, CAMA-1, read-out: Cell Count GI50): 0.647 nM | IC50 (CAMA-1; Homo sapiens, CAMA-1, read-out: Cell Count IC50): 4.34 nM | Cell Count Activity Area (CaOV3): 2.53 | Relative cell count (%) Mean (CaOV3; 1.00E+00 microM): 57.7% | Relative cell count (%) Mean (CaOV3; 1.00E-01 microM): 63.1% | Relative cell count (%) Mean (CaOV3; 1.00E-02 microM): 73.9% | Relative cell count (%) Mean (CaOV3; 1.00E-03 microM): 76.4% | Relative cell count (%) Mean (CaOV3; 1.01E-04 microM): 98.2% | Relative cell count (%) Mean (CaOV3; 3.16E-01 microM): 60.5% | Relative cell count (%) Mean (CaOV3; 3.17E-02 microM): 64.6% | Relative cell count (%) Mean (CaOV3; 3.17E-03 microM): 78.3% | Relative cell count (%) Mean (CaOV3; 3.18E-04 microM): 76.6% | Relative cell count (%) Mean (CaOV3; 3.18E-05 microM): 97.5% | EC50 (CaOV3; Homo sapiens, Caov-3, read-out: Cell Count EC50): 1.59 nM | GI50 (CaOV3; Homo sapiens, Caov-3, read-out: Cell Count GI50): 47.7 nM | IC50 (CaOV3; Homo sapiens, Caov-3, read-out: Cell Count IC50): > 1000 nM
